PubChem BioAssay AID330 (DTP/NCI, 2004)
Where “and” joins values, the source holds several entries; their conditions need not be identical. Equal values may be shown once. Inconclusive results and toxic doses are left out. The calls were made as follows: active = survival T/C of 150% or more; inactive = T/C below 125% in these data.

System: P388 leukemia ip, CD2F1 mice, survival T/C
Experiment: NCI In Vivo Anticancer Drug Screen. Data for tumor model P388 Leukemia (intraperitoneal) in CD2F1 (CDF1) mice
Conditions: endpoint: median survival time, higher = longer survival
Summary of the method: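 Mice carrying the transplanted tumor received test compound or vehicle. Survival was recorded in each group, and the value is the treated-group measurement divided by that of the vehicle-treated control group.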

[1] = dose: 60.0 mg/kg/injection, schedule: Q01DX005 (ip), vehicle: saline with Tween-80
[2] = dose: 120.0 mg/kg/injection, schedule: Q01DX005 (ip), vehicle: saline with Tween-80
[3] = dose: 240.0 mg/kg/injection, schedule: Q01DX005 (ip), vehicle: saline with Tween-80
[4] = dose: 50.0 mg/kg/injection, schedule: Q01DX009 (ip), vehicle: saline with Tween-80
[5] = dose: 100.0 mg/kg/injection, schedule: Q01DX009 (ip), vehicle: saline with Tween-80
[6] = dose: 200.0 mg/kg/injection, schedule: Q01DX009 (ip), vehicle: saline with Tween-80

Measured: T/C

CC(C)=CCCc1ccc2c(c1)C(=O)c1cc3c(cc1C2=O)OCO3
inactive: dose: 3.75 mg/kg/injection, schedule: Q01DX005 (ip), vehicle: saline with Tween-80 101 % of control | dose: 7.5 mg/kg/injection, schedule: Q01DX005 (ip), vehicle: saline with Tween-80 91 % of control | dose: 15.0 mg/kg/injection, schedule: Q01DX005 (ip), vehicle: saline with Tween-80 98 % of control and 104 % of control | [1] 87 % of control

CC(C)(CC(=O)OCCO)c1cc(CC(C)(C)c2cc(CC(C)(C)c3cc(CC(C)(C)C4(C)OCCO4)no3)no2)no1
inactive: dose: 100.0 mg/kg/injection, schedule: Q04DX002 (ip), vehicle: saline with Tween-80 88 % of control | dose: 200.0 mg/kg/injection, schedule: Q04DX002 (ip), vehicle: saline with Tween-80 87 % of control | dose: 400.0 mg/kg/injection, schedule: Q04DX002 (ip), vehicle: saline with Tween-80 87 % of control

CC1=CC(=O)C(O)C2(C)C(CCC3(C)OCCO3)C=C(O[Si](C)(C)C(C)(C)C)CC12 (stereo not given)
inactive: [1] 96 % of control | [2] 96 % of control | [3] 100 % of control

Cc1ccc(NC(=O)Oc2ccc(OCc3ccccc3)cc2)c([N+](=O)[O-])c1
inactive: [4] 99 % of control | [5] 97 % of control | [6] 95 % of control

Nc1nnc(/C=C/c2ccccc2)o1
inactive: [1] 117 % of control | [2] 107 % of control | [3] 109 % of control

CNCCCN1c2ccccc2CCc2ccccc21
inactive: dose: 50.0 mg/kg/injection, schedule: Q01DX005 (ip), vehicle: saline with Tween-80 103 % of control

O=NNc1ncccn1
inactive: dose: 3.12 mg/kg/injection, schedule: Q01DX009 (ip), vehicle: water 96 % of control | dose: 6.25 mg/kg/injection, schedule: Q01DX009 (ip), vehicle: water 105 % of control | dose: 12.5 mg/kg/injection, schedule: Q01DX009 (ip), vehicle: water 93 % of control | dose: 25.0 mg/kg/injection, schedule: Q01DX009 (ip), vehicle: water 101 % of control | dose: 50.0 mg/kg/injection, schedule: Q01DX009 (ip), vehicle: water 102 % of control | dose: 100.0 mg/kg/injection, schedule: Q01DX009 (ip), vehicle: water 93 % of control

Cc1[nH]c2ccccc2c1-c1cc(-c2cc(-c3c(C)[nH]c4ccccc34)on2)no1
inactive: dose: 60.0 mg/kg/injection, schedule: Q01DX005 (ip), vehicle: Klucel + Tween-80 97 % of control | dose: 120.0 mg/kg/injection, schedule: Q01DX005 (ip), vehicle: Klucel + Tween-80 100 % of control | dose: 240.0 mg/kg/injection, schedule: Q01DX005 (ip), vehicle: Klucel + Tween-80 103 % of control

Cn1c2ccccc2c(=O)c2ccc(Cl)cc21
inactive: dose: 25.0 mg/kg/injection, schedule: Q01DX009 (ip), vehicle: Klucel (hydroxypropylcellulose) (HPC) 117 % of control | dose: 50.0 mg/kg/injection, schedule: Q01DX009 (ip), vehicle: Klucel (hydroxypropylcellulose) (HPC) 111 % of control | dose: 100.0 mg/kg/injection, schedule: Q01DX009 (ip), vehicle: Klucel (hydroxypropylcellulose) (HPC) 114 % of control | dose: 200.0 mg/kg/injection, schedule: Q01DX009 (ip), vehicle: Klucel (hydroxypropylcellulose) (HPC) 88 % of control | dose: 400.0 mg/kg/injection, schedule: Q01DX009 (ip), vehicle: Klucel (hydroxypropylcellulose) (HPC) 104 % of control

C/C(CC(N)=O)=C1\C(=O)NN(c2ccccc2)C1=O
inactive: [1] 108 % of control | [2] 110 % of control | [3] 114 % of control

[C-]#[O+].[Cl][Ru]([Cl])([Cl])([Cl])[Cl]
inactive: dose: 12.5 mg/kg/injection, schedule: Q04DX003 (ip), vehicle: water 108 % of control | dose: 25.0 mg/kg/injection, schedule: Q04DX003 (ip), vehicle: water 96 % of control | dose: 50.0 mg/kg/injection, schedule: Q04DX003 (ip), vehicle: water 105 % of control

Nc1cccc2cccc([N+](=O)[O-])c12
inactive: dose: 25.0 mg/kg/injection, schedule: Q01DX001 (ip), vehicle: saline with Tween-80 97 % of control | dose: 50.0 mg/kg/injection, schedule: Q01DX001 (ip), vehicle: saline with Tween-80 110 % of control | dose: 100.0 mg/kg/injection, schedule: Q01DX001 (ip), vehicle: saline with Tween-80 99 % of control | dose: 200.0 mg/kg/injection, schedule: Q01DX001 (ip), vehicle: saline with Tween-80 98 % of control

Cc1cc(CCNC=O)c(C)c2c1oc1ccccc12
inactive: [4] 110 % of control | [5] 103 % of control | [6] 94 % of control | dose: 400.0 mg/kg/injection, schedule: Q01DX009 (ip), vehicle: saline with Tween-80 94 % of control
